Data reported in ChEMBL document CHEMBL1201862, “PubChem BioAssay data set” (2004).
Active and inactive are the calls of the source. For most assays here, no stated cut-off is given here; in the data, actives have a measured EC50 and inactives only a lower limit.

Legend:
[1] = inhibitors of SNCA 5'UTR-driven translation, confirmation, luminescence, H4 neuroglioblastoma cells, dose confirmation (AID 2454); assay type: functional, cell-based;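 further: H4 neuroglioblastoma cells carrying an alpha-synuclein 5'UTR luciferase reporter; potency for inhibition of the luciferase signal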
cells [2] = assay type: functional, cell-based
[3] = Luminescence Cell-Based Dose Response HTS to Identify Inhibitors of 5'UTR Stem-Loop Driven Prion Protein mRNA Translation in H4 Neuroglioblastoma Cells. [Related pubchem assays: 1827 (Project Summary), 1813 (Primary HTS)]; assay type: functional
[4] = biological target: Glyceraldehyde-3-phosphate dehydrogenase (Homo sapiens, UniProt P04406)
[5] = inhibitors of firefly luciferase expression or activity, dose response, H4 neuroglioma cells, luminescence (AID 1990); assay type: functional, cell-based
[6] = inhibitors of SNCA 5'UTR-driven reporter translation, confirmation, H4 neuroglioma cells, luminescence (AID 1988); assay type: functional, cell-based
[7] = biological target: Luciferin 4-monooxygenase (Photinus pyralis, UniProt P08659); assay: Counter Screen for Luciferase-based Assay Positives. [Related pubchem assays: 620, 618, 411 ]
HT-1080 = assay: cytotoxicity in HT1080 fibrosarcoma cells, cell-based, fluorescence readout (AID 620); assay type: functional; details: Homo sapiens
[8] = luciferase reporter signal reduction – luminescence, H4-C neuroglioblastoma cells, dose response (AID 2458); assay type: functional, cell-based;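 further: H4 neuroglioblastoma cells stably carrying a luciferase reporter gene fusion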
[9] = Luminescence Cell-Based Dose Retest to Confirm Inhibitors of Cancer Stem Cells. [Related pubchem assays (depositor defined):AID2717, AID2721]; assay type: functional; details: Homo sapiens
Vero = assay: host cell cytotoxicity of antiviral hits, dose response, cytotoxicity control for West Nile virus antiviral project, secondary assay (AID 1650); assay type: functional; details: Chlorocebus sabaeus
[10] = reduction of Shn3 3'UTR firefly luciferase signal, dose response, Schnurri-3 inhibitor project, cell-based, Clone20 osteoblasts, cherry-pick, set 2 (AID 720490); assay type: functional;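 further: actives lower the luminescence signal as inhibitors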
BJ [11] = assay: cytotoxicity toward BJ-TERT fibroblasts, dose response, cell-based, RAS-independent, luminescence (AID 1933); assay type: functional; details: Homo sapiens
[12] = HepG2 cell cytotoxicity, dose response, cytotoxicity control for Shn3 inhibitor project, CellTiter-Glo, cherry-picked (AID 624134); assay type: functional, cell-based
[13] = cytotoxicity toward DRD oncogenic fibroblasts, dose response, cell-based, non-viral oncogenic, luminescence (AID 1934); assay type: functional; details: Homo sapiens
[14] = Shn3 3'UTR reporter inhibitors, dose response, cell-based, Clone20 osteoblasts, firefly luciferase, cherry-picked (AID 624132); assay type: functional;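 further: firefly luciferase luminescence from reporter carrying the Shn3 3'UTR in osteoblasts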
BJ [15] = assay: cytotoxicity toward BJ-TERT-LT-ST fibroblasts, dose response, cell-based, RAS-independent, luminescence (AID 1935); assay type: functional; details: Homo sapiens;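 further: BJ fibroblasts immortalized with TERT plus LT and ST oncogenes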
BJ [16] = assay: cells; assay type: functional, cell-based; details: Homo sapiens
HeLa = assay: Cytotoxicity counterscreen assay for transcriptional activators of heat shock protein 70 (Hsp70). [Related pubchem assays: 1203, 1252 ]; assay type: functional; details: Homo sapiens;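 further: cells exposed to compound for 16 hours before readout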
[17] = biological target: T1, Calpain-2 catalytic subunit (Sus scrofa, UniProt P43367); assay: pig calpain II inhibitor potency, dose response, biochemical, fluorogenic peptide substrate (AID 1420); assay type: functional
T1 sequence (P43367 whole entry): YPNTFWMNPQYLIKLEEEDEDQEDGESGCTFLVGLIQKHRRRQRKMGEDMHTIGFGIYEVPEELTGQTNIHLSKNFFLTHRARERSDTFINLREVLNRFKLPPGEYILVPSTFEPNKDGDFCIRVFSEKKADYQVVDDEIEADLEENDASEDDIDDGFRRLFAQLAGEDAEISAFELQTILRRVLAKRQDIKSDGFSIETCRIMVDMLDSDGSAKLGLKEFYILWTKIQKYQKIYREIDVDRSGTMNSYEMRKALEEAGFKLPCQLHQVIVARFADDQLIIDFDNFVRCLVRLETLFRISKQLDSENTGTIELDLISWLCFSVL

[18] = A Cell Based Secondary Assay To Explore Cytotoxicity of Compounds that Sensitize Mycobacterium Tuberculosis to Beta-Lactam Antibiotics.; assay type: functional
cells [19] = assay: cells
[20] = cytotoxicity toward NIH3T3 fibroblasts, dose response, counter-screen, cell-based, ATP luminescence, mouse fibroblasts (AID 2010); assay type: functional;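 further: cells exposed to compound for about 90 hours before reading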
[21] = inhibitors of intracellular T. cruzi replication, confirmation, NIH3T3 host cells, beta-gal luminescence (AID 2044); assay type: functional, cell-based;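 further: intracellular parasites grown in NIH/3T3 mouse fibroblasts as host cells; luminescent beta-galactosidase reporter signal from transgenic T. cruzi replicating inside host cells; inhibitors lower the luminescence signal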
[22] = biological target: T2, Epstein-Barr nuclear antigen 1 (Epstein-Barr virus (strain B95-8) (HHV-4) (Human herpesvirus 4), UniProt P03211); assay: EBNA-1 inhibitors, dose response, biochemical, fluorescence polarization, 1536-well (AID 2381); parameters: species or system human gammaherpesvirus 4;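 further: fluorescence polarization of a Cy5 DNA probe bound by EBNA-1 protein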
T2 sequence (P03211 whole entry): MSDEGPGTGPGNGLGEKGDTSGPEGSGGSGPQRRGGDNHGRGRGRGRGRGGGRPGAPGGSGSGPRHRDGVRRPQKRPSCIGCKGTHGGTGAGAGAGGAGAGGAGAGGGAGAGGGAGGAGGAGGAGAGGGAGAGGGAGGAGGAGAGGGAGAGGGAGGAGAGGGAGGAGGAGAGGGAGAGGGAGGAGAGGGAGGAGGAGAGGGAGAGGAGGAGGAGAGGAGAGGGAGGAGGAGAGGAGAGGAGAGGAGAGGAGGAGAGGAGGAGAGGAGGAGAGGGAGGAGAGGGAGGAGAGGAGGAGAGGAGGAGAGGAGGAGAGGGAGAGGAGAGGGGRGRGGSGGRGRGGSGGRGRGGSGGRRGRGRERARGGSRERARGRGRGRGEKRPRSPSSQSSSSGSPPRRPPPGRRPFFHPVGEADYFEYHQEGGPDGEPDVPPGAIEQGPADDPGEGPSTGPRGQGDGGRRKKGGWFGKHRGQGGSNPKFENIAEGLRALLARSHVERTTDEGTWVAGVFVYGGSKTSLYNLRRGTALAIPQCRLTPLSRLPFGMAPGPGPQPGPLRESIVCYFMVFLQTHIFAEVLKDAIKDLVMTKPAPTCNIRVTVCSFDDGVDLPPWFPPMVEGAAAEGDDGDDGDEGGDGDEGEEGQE

[23] = C. albicans growth with fluconazole, confirmation, fluorescence, retest (AID 2467); assay type: functional, cell-based
[24] = biological target: T3, Lytic switch protein BZLF1 (Epstein-Barr virus (strain B95-8) (HHV-4) (Human herpesvirus 4), UniProt P03206); assay: EBV ZTA inhibitors, dose response, counter-screen for EBNA-1 inhibitor project, biochemical, fluorescence polarization, Epstein-Barr virus, 1536-well (AID 2377); parameters: species or system human gammaherpesvirus 4;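 further: fluorescence polarization of Cy5-labelled ZRE DNA probe bound by purified Zta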
T3 sequence (P03206 whole entry): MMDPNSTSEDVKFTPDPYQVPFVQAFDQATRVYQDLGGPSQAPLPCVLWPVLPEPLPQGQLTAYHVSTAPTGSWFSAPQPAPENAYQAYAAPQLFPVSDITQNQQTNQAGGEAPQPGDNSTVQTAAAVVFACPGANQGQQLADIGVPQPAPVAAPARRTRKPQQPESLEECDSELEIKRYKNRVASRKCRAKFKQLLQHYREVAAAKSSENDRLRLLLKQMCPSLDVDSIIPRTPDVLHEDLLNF

[25] = NIH-3T3 fibroblast cytotoxicity, dose response, cytotoxicity control, cell-based, fluorescence, Alamar Blue, secondary assay (AID 2327); assay type: functional;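 further: NIH-3T3 mouse fibroblasts cultured with fluconazole at 8 µg/mL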
[26] = biological target: Peroxisome proliferator-activated receptor gamma/Nuclear receptor coactivator 2 (Homo sapiens, UniProt P37231); assay: TR-FRET dose response biochemical High Throughput Screening assay for agonists of the steroid receptor coactivator 2 (SRC-2) recruitment by the peroxisome proliferator-activated receptor gamma (PPAR gamma): non-selective agonists. [Related pubchem assays: 1297, 1032 ]; assay type: functional
[27] = biological target: Peroxisome proliferator-activated receptor gamma/Nuclear receptor coactivator 3 (Homo sapiens, UniProt P37231); assay: TR-FRET dose response biochemical High Throughput Screening assay for agonists of the steroid receptor coactivator 3 (SRC-3) recruitment by the peroxisome proliferator-activated receptor gamma (PPAR gamma): non-selective agonists. [Related pubchem assays: 1301 (Confirmation screen.), 1048 (Primary screen.)]; assay type: functional
[28] = biological target: Peroxisome proliferator-activated receptor gamma/Nuclear receptor coactivator 1 (Homo sapiens, UniProt P37231); assay: TR-FRET dose response biochemical High Throughput Screening assay for agonists of the steroid receptor coactivator 1 (SRC-1) recruitment by the peroxisome proliferator-activated receptor gamma (PPAR gamma): non-selective agonists. [Related pubchem assays (depositor defined):AID1300, AID1808, AID504735, AID631]; assay type: protein assay
[29] = test system: Streptococcus sp. 'group A'; assay: growth inhibition of control SK(-) GAS strain, dose response, counter-screen for streptokinase expression inhibitor project, luminescence, kanamycin, BacTiterGlo, confirmation (AID 1900); assay type: functional, organism-based
Streptokinase A = biological target: T4, Streptokinase A (Streptococcus pyogenes serotype M1, UniProt P10520); assay: S. pyogenes streptokinase expression inhibitors, potency, dose response, plasminogen activation absorbance, OD405 (AID 1914); assay type: functional, Streptococcus pyogenes M1 GAS;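 further: secreted streptokinase activity via plasminogen activation per viability signal from cell pellet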
T4 sequence (P10520 whole entry): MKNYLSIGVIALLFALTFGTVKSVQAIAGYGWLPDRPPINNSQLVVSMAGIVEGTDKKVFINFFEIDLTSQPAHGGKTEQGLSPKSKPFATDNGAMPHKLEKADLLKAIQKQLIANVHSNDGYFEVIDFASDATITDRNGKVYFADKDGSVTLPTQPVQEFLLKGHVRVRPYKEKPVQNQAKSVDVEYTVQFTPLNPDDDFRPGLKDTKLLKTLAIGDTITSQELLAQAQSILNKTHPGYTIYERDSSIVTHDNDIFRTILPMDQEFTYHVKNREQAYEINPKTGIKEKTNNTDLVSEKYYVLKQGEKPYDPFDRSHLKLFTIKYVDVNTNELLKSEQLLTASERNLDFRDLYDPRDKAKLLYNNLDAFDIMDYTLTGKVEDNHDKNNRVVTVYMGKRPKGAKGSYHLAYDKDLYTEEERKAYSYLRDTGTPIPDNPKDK

Streptococcus = assay: Group A Streptococcus viability loss, dose response, counter-screen for streptokinase expression inhibitor project, luminescence, BacTiterGlo (AID 1915); assay type: functional, organism-based;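 further: potency for reduction of bacterial viability or growth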

Sequence of Luciferin 4-monooxygenase (P08659 whole entry): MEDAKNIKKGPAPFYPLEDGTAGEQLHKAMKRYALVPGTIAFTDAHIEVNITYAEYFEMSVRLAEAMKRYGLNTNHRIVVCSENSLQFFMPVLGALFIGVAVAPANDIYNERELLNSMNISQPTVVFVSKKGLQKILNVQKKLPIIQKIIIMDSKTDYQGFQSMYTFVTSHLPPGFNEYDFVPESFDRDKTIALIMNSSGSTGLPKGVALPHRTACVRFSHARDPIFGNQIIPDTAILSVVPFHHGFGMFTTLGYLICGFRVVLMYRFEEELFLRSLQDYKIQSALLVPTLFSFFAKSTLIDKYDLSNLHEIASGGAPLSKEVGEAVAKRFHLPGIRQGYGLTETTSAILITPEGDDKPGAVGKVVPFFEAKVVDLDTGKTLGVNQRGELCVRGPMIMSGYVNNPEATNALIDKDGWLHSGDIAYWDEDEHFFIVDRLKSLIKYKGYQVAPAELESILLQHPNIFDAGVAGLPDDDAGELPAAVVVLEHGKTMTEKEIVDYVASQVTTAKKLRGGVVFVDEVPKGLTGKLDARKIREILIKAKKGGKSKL
Sequence of Peroxisome proliferator-activated receptor gamma/Nuclear receptor coactivator 2 (P37231 whole entry): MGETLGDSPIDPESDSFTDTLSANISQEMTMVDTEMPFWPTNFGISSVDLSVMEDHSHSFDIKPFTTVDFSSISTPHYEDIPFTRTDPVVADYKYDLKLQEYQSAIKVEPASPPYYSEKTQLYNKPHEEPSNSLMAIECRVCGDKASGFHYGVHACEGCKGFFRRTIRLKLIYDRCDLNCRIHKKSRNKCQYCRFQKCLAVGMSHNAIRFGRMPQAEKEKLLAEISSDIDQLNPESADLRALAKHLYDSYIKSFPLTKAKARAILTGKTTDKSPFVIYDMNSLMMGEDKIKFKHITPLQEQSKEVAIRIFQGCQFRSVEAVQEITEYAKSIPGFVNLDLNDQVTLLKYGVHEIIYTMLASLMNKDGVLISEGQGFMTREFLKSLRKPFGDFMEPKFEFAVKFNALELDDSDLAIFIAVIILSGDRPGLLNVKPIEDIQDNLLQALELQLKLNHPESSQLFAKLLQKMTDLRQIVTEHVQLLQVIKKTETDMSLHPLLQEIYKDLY
Sequence of Peroxisome proliferator-activated receptor gamma/Nuclear receptor coactivator 2 (Q15596 whole entry, further chain): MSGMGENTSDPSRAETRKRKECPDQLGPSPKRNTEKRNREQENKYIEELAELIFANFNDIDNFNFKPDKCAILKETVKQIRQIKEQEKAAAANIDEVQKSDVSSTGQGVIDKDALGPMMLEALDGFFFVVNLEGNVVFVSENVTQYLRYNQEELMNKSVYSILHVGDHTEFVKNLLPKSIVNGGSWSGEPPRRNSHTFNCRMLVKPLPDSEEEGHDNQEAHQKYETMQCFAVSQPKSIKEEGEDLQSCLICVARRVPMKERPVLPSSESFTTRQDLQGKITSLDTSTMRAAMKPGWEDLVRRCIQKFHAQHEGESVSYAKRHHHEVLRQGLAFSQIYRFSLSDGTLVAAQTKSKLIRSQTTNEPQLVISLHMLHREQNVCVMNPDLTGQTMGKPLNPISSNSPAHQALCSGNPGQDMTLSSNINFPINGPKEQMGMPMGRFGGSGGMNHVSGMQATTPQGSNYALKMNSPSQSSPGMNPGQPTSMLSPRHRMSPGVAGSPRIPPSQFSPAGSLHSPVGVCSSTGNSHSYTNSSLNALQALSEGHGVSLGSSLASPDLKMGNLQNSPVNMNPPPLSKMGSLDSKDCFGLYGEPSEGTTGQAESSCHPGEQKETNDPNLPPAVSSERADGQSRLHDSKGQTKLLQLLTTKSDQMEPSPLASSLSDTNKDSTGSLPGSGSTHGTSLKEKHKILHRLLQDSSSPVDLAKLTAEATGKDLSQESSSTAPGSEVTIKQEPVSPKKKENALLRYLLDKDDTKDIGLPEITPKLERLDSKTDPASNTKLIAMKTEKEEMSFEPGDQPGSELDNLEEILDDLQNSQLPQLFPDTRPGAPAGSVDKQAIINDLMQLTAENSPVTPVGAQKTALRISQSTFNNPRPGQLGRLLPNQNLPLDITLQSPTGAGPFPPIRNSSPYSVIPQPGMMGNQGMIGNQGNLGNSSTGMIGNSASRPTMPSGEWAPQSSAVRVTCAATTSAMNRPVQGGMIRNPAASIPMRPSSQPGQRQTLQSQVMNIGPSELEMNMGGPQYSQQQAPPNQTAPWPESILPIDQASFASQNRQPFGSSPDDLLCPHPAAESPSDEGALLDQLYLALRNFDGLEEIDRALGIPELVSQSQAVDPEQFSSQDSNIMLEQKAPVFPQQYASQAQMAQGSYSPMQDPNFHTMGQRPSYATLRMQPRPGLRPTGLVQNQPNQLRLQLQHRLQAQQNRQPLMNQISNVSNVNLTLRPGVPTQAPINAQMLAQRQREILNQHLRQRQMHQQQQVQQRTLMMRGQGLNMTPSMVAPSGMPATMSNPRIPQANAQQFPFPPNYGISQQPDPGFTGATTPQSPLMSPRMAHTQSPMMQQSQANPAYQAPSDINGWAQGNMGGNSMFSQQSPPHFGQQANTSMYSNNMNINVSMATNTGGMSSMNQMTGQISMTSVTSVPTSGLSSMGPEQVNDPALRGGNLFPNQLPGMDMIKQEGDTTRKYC
Sequence of Peroxisome proliferator-activated receptor gamma/Nuclear receptor coactivator 3 (P37231 whole entry): as the sequence (P37231 whole entry) above
Sequence of Peroxisome proliferator-activated receptor gamma/Nuclear receptor coactivator 3 (Q9Y6Q9 whole entry, further chain): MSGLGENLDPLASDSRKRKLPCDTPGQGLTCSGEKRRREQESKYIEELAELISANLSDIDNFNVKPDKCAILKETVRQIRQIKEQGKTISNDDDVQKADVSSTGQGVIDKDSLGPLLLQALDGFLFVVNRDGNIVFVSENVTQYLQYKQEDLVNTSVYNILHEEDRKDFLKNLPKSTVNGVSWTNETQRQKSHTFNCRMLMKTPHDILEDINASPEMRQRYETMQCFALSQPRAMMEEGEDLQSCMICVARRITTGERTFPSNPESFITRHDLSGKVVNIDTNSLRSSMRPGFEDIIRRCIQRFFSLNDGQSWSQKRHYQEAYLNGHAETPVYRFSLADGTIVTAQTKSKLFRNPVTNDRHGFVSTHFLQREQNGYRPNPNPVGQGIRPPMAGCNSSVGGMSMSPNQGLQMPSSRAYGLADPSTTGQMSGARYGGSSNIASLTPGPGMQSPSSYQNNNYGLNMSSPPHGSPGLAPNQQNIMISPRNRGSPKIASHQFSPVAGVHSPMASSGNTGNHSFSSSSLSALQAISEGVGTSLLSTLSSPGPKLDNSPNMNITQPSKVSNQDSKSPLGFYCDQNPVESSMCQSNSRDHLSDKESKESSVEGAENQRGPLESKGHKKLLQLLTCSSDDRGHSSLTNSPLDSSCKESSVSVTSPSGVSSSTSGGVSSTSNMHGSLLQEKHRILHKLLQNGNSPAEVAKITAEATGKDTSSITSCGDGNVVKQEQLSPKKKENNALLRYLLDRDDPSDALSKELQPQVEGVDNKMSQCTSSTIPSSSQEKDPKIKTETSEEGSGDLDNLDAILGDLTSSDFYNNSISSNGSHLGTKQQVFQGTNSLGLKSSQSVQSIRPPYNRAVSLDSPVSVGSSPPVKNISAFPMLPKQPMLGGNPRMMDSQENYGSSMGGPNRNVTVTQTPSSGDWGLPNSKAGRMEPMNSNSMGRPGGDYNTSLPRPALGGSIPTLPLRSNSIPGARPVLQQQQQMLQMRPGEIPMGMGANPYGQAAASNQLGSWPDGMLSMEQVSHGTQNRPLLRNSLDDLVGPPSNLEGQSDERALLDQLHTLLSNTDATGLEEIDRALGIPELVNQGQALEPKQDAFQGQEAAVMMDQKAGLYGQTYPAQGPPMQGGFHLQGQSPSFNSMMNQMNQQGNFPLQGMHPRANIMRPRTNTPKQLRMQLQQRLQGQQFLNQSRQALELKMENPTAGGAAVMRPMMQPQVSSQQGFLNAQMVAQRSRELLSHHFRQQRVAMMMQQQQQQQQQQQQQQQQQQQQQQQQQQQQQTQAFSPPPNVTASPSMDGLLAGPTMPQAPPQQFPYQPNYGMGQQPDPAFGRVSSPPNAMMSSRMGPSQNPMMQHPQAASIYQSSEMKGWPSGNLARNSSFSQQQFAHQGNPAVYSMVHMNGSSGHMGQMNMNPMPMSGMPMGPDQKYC
Sequence of Glyceraldehyde-3-phosphate dehydrogenase (P04406 whole entry): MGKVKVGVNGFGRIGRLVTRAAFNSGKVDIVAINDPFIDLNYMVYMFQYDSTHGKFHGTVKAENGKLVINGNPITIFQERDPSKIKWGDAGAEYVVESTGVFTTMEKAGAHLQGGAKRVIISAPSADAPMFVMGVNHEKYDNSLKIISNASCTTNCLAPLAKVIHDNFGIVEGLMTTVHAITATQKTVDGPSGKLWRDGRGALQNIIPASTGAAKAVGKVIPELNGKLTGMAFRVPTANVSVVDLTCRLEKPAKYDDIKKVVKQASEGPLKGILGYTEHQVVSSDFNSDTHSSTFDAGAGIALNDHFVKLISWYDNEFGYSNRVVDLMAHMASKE

CCOC(=O)C1CCCCN1C(=O)CCc1c(C)nc2cc(-c3ccccc3)nn2c1C (configuration not stated)
EC50 [1]: 1.33 µM (active)
EC50 (cells [2]): > 12 µM (not active)
EC50 [3]: 11.1 µM (active)
IC50 [4]: > 100 µM (not active)
EC50 [5]: < 0.1 µM (active)
EC50 [6]: < 0.1 µM (active)
EC50 [7]: > 100 µM (not active)
EC50 (HT-1080): > 50 µM (not active)
EC50 [8]: 0.972 µM (active)

Cc1ccc(NNC(=O)C(O)(c2cccc(C(F)(F)F)c2)c2cccc(C(F)(F)F)c2)cc1
AC50 [9]: 1.14 µM (active)
CC50 (Vero): 29.8 µM (active)

COc1ccc(OCc2cccc(C(=O)O)c2)cc1
AC50 [10]: 2.01 µM (active)
EC50 [1]: 0.267 µM (active)
EC50 (cells [2]): 0.307 µM (active)
EC50 [3]: 0.121 µM (active)
EC50 [5]: 0.305 µM (active)
EC50 (BJ [11]): 18.8 µM (active)
EC50 [6]: < 0.1 µM (active)
AC50 [12]: > 70 µM (inactive)
EC50 [13]: 9.09 µM (inconclusive)
AC50 [14]: 1.39 µM (active)
EC50 (BJ [15]): > 150 µM (inconclusive)
EC50 (BJ [16]): 8.86 µM (active)
EC50 [8]: 0.26 µM (active)

COCCn1c(C)cc(C(=O)CSc2nc3ccccc3c(=O)n2C(C)COC)c1C (configuration not stated)
CC50 (HeLa): > 99 µM (not active)

CCc1ccc2c(c1)C(c1ccc([N+](=O)[O-])cc1)=NNC(c1ccc(C)cc1)=N2
IC50 [17]: 15.6 µM (not active)
CC50 [18]: > 40 µM (active)

CCOc1cc(N2CCOCC2)c(OCC)cc1NC(=O)COc1cccc(CC)c1
CC50 [18]: > 40 µM (active)

CCn1c(SCC(=O)c2ccccc2)nc2sc3c(c2c1=O)CCN(C)C3
EC50 (cells [19]): 0.061 µM (active)
EC50 [20]: > 60 µM (not active)
EC50 [21]: < 0.1 µM (active)

O=C(CSc1nnc(-c2ccc(Br)cc2)o1)Nc1cccc2ccccc12
IC50 [22]: 14.3 µM (not active)
EC50 [23]: > 38 µM (not active)
IC50 [24]: > 111 µM (not active)
EC50 [25]: > 150 µM (inconclusive)

O=C(CSc1ncnc2c1oc1ccccc12)Nc1cccc(F)c1
IC50 [22]: > 148 µM (not active)
IC50 [24]: > 111 µM (not active)
EC50 [26]: 15.6 µM (not active)
EC50 [27]: > 79.4 µM (not active)
EC50 [28]: > 26.5 µM (inactive)

Cn1c(O)c(N=NC(=O)c2cc(-c3cccs3)nc3ccccc23)c2ccccc21
EC50 [29]: 9.12 µM (active)
EC50 (Streptokinase A): > 150 µM (not active)
IC50 [22]: 2.73 µM (active)
IC50 [24]: > 111 µM (not active)
EC50 (Streptococcus): 16.7 µM (active)

Cc1ccc(O)c(/C=N/NC(=O)C2=NNC(c3ccccc3)(c3ccccc3)C2)c1
EC50 [7]: 5.52 µM (active)
EC50 (HT-1080): > 50 µM (not active)
